Tests used:
A549 cells = test: Functional test of M4N@rABL (cell viability, trypan blue); format: cell-based; conditions: 100 μM M4N (20 μg/ml rABL), 24 hrs treatment then 48 hrs culture
Source text: After removing the medium, the cells were washed twice with PBS and cultured with serum-containing medium for 48 hrs. The cell viability was observed by a trypan blue staining.

mice = conditions: long-term feeding; cited from earlier work

In the case of COc1ccc(C[C@@H](C)[C@@H](C)Cc2ccc(OC)c(OC)c2)cc1OC [M4N, tetra-O-methyl nordihydroguaiaretic acid], the cell viability (A549 cells) is given as 40% and the “weight changes or mortality” value (mice) is given as “not found any obvious weight changes or mortality”.
